From patent publication US20250083204A1, “CUPRIAVIDUS METALLIDURANS CML2, ITS PREPARATION, AND ITS BIOR[…] FOR HEAVY METAL-CONTAMINATED ENVIRONMENT” (priority 2023, published 2025) come the findings set out here.

In general, MIC refers to the smallest concentration in the dilution series that meets the test's criterion for growth inhibition.

In data set [1] the test system is Cupriavidus metallidurans CML2. Format: cell-based. The conditions noted are these: for MIC: lowest concentration of heavy metal inhibiting growth of CML2. An excerpt:
Note that the MIC values refer to the lowest concentration of each heavy metal required to inhibit the growth of Cupriavidus metallidurans CML2.

Another data set has as its system rice seedling. As to the kind of experiment: Rice seedling root and shoot growth. It is filed as in vivo. The conditions noted are these: 14-day cultivation, cadmium alone. An excerpt:
FIG. 7A-7C are schematic diagrams illustrating an effect of Cupriavidus metallidurans CML2 inoculation on rice seedling growth and cadmium remediation. FIG. 7A illustrates the effects of Cupriavidus metallidurans CML2 on rice seedling morphology; FIG. 7B illustrates the effects of Cupriavidus metallidurans CML2 on relative lengths of the root and shoot under different conditions. C: control, treated with sterile NB medium; CML2: treated with strain CML2; Cd: treated with Cd^2+; CML2+Cd: treated with both CML2 and Cd^2+; FIG. 7C illustrates the effects of Cupriavidus metallidurans CML2 on cadmium accumulation in rice seedling roots and shoots; data represents means±SEM; different letters (a or b) above the columns indicate significant differences between the three groups using one-way ANOVA at P<0.05; “***” indicates statistically significant differences according to a t-test, P<0.001.
To assess the impact of strain CML2 as a facilitator for plant growth and a cadmium remediation agent, Embodiment 8 conducted an analysis on the relative lengths of rice roots and shoots as well as cadmium concentrations, under different treatments: control, Cupriavidus metallidurans CML2 (CML2), cadmium (Cd), and CML2+Cd (Simultaneous treatment with cadmium and CML2). The control group (C) consisted of rice plants cultured in a sterile nutrient solution.

“And” between values parts separate entries of the source, which are not always exact repeats. Identical values can stand only once.

`[Cd+2]` [Cadmium (Cd^2+), Cadmium]: in data set [1], the “tolerance of CML2 to heavy metal” value was 13 mM and 2400 mg/L; the MIC came out at 13.1 mM. Moreover, the “inhibition of rice root and shoot growth compared to control” value with rice seedling is recorded as “approximately 89%”.

In the case of `[Cu+2]` [Copper (Cu^2+), Copper], the MIC in data set [1] is reported as 2.0 mM.

On to `[Mn+2]` [Manganese (Mn^2+), Manganese], for which, in data set [1], the “tolerance of CML2 to heavy metal” value worked out at 110 mM and the MIC is recorded as 110 mM.

In turn, `[Ni+2]` [Nickel (Ni^2+), Nickel] displayed a minimum inhibitory concentration (MIC) in data set [1] of 2.5 mM.

For the compound `[Se+4]` [Selenium (Se^4+), Selenium], the MIC in data set [1] is given as 45 mM. This MIC is about 18-fold higher than that of the compound before.

In the case of `[Zn+2]` [Zinc (Zn^2+), Zinc], in data set [1], the MIC is recorded as 20 mM. Compared with the last compound, the MIC is about 2.2-fold lower.

In the case of Mercury [Mercury (Hg^2+)], in data set [1], the “tolerance of CML2 to heavy metal” value was found to be 0.03 mM and the MIC turned out to be 0.03 mM.
